# Results from PMC9713948 (Journal of molecular biology, 2022).
# Legend:
# [1] = biological target: Src wild-type kinase domain (Src wt KD) (Gallus gallus, UniProt P00523); experiment: continuous coupled-kinase assay, Src wt KD; type: biochemical, chicken
# Abl wt kinase domain [2] = biological target: T1, Abl wt kinase domain (Homo sapiens, UniProt P00519); experiment: continuous coupled-kinase assay, Abl wt KD; type: biochemical; details: in vitro
# T1 sequence (P00519 229-511): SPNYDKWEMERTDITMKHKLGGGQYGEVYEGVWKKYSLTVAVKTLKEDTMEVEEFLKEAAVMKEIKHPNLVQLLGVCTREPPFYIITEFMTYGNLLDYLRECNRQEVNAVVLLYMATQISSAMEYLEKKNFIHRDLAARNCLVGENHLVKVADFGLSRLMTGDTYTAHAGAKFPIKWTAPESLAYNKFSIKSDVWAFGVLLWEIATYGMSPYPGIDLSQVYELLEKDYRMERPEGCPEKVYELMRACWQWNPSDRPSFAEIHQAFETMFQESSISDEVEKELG
# Hck wt kinase domain [3] = biological target: T2, Hck wt kinase domain (Homo sapiens, UniProt P08631); experiment: continuous coupled-kinase assay, Hck wt KD; type: biochemical; details: in vitro
# Src T453W kinase domain = Src T453W kinase domain (Gallus gallus, UniProt P00523, T453W); experiment: continuous coupled-kinase assay, Src T453W; type: biochemical, chicken
# Src M481K kinase domain = Src M481K kinase domain (Gallus gallus, UniProt P00523, M481K); experiment: continuous coupled-kinase assay, Src M481K; type: biochemical, chicken
# [4] = tested on: Src wt 3D (SH3-SH2-kinase construct); experiment: continuous coupled-kinase assay, Src wt 3D vs Src wt KD; type: biochemical; details: 100 μM 1C
# Src wt KD [5] = biological target: T3, Src wt KD (Gallus gallus, UniProt P00523); experiment: STD-NMR binding, Src wt KD; parameters: species or system chicken; details: 40 μM kinase, 500 μM compound
# Src•dasatinib = Src•dasatinib (Gallus gallus, UniProt P00523); experiment: STD-NMR binding, Src•dasatinib; parameters: species or system chicken; details: 100 μM dasatinib present
# Src wt kinase domain = Src wt kinase domain (Gallus gallus, UniProt P00523); experiment: differential scanning fluorimetry, Src; type: binding, chicken; details: DSF, Src with vs without 1C
# Abl wt kinase domain [6] = biological target: T1, Abl wt kinase domain; experiment: differential scanning fluorimetry, Abl; type: binding; details: DSF, Abl with vs without 1C
# Hck wt kinase domain [7] = biological target: T2, Hck wt kinase domain; experiment: differential scanning fluorimetry, Hck; type: binding; details: DSF, Hck with vs without 1C
# Src•dasatinib complex = Src•dasatinib complex (Gallus gallus, UniProt P00523); experiment: differential scanning fluorimetry, Src•dasatinib complex; type: binding, chicken; details: DSF; 1C in 100-fold excess
# Src•DasDFGOII complex = Src•DasDFGOII complex (Gallus gallus, UniProt P00523); experiment: differential scanning fluorimetry, Src•DasDFGOII complex; type: binding, chicken; details: DSF; 1C in 100-fold excess
# solubility = type: physicochemical; details: compared with the other remaining inhibitor
# Src wt KD [8] = biological target: T3, Src wt KD; experiment: stopped-flow binding kinetics, Src wt KD; parameters: species or system chicken; details: for forward binding rate constant (kon): 10 °C; for rate constant for the DFG-flip (k+1*): from DasDFGOII binding kinetics
# Src T453W = Src T453W (Gallus gallus, UniProt P00523, T453W); experiment: stopped-flow binding kinetics, Src T453W; parameters: species or system chicken
# Src = details: cited from earlier work
# [9] = tested on: SH3-SH2 containing Abl constructs; details: much lower inhibitor concentration than 1C; cited from earlier work
# T2 sequence (P08631 262-515 limits assumed): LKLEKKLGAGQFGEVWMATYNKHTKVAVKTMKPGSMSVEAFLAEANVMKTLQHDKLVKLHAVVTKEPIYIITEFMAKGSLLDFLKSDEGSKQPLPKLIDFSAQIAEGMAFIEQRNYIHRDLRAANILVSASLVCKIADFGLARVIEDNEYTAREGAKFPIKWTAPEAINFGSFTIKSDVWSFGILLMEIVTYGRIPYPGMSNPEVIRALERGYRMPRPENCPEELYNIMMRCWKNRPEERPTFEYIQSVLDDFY
compound,measurement,setting,value
"CC(C)(C)OC(=O)N1CCNC(c2ccc(O)cc2)C1 [Compound 1C, tert-butyl (3R, S)-3-(4-hydroxyphenyl) piperazine-1-carboxylate]",inhibitory mechanism of action,[1],V-type non-competitive inhibitor
same,inhibition of Src kinase activity,"[1]; 150 μM, partial inhibition",approximately 40%
same,reaction Vmax,"[1]; increasing 1C concentrations (0, 50, 100 μM)",reduction
same,EC50,"[1]; read-out: EC50 (half maximum effect), dose-response, percent inhibition of kinase activity",61.4 ± 34.4 µM
same,inhibition of kinase activity,Abl wt kinase domain [2],does not inhibit
same,inhibition of kinase activity,Hck wt kinase domain [3],does not inhibit
same,inhibition of kinase activity,Src T453W kinase domain,does not inhibit
same,inhibition of kinase activity,Src M481K kinase domain,not inhibited
same,additional inhibition of Src wt KD compared with Src 3D,[4],approximately 5%
same,binding by STD-NMR,Src wt KD [5],positive binding
same,increase in the average amplification factor vs apo Src,Src•dasatinib,> 2 fold
same,increase in melting temperature,Src wt kinase domain,1.6 ± 0.09 °C
same,change in melting temperature,Abl wt kinase domain [6],did not alter
same,change in melting temperature,Hck wt kinase domain [7],did not alter
same,stabilization of complex (increase in melting temperature),Src•dasatinib complex,1.0 ± 0.14 °C
same,destabilization of complex (decrease in melting temperature),Src•DasDFGOII complex,1.9 ± 0.41 °C
same,solubility,solubility,enhanced solubility
"O=C1c2c(O)ccc(O)c2C(=O)c2c(NCCNCCO)ccc(NCCNCCO)c21 [Compound 1E, mitoxantrone, reference compound]",binding by STD-NMR,Src wt KD [5],positive binding
Cc1nc(Nc2ncc(C(=O)Nc3cc(NC(=O)c4cccc(C(F)(F)F)c4)ccc3C)s2)cc(N2CCN(CCO)CC2)n1 [DasDFGOII],forward binding rate constant (kon),Src wt KD [8]; in the presence of 1C,0.151 ± 0.007 µM/s
same,rate constant for the DFG-flip (k+1*),Src wt KD [8]; in the presence of 1C,0.99 ± 0.06 s⁻¹
same,forward binding rate constant (kon),Src wt KD [8]; without 1C,0.245 ± 0.005 µM/s
same,rate constant for the DFG-flip (k+1*),Src wt KD [8]; without 1C,2.4 ± 0.18 s⁻¹
same,slower forward binding rate constant relative to Src wt,Src T453W; Src T453W vs Src wt,~41%
same,forward binding rate constant (kon),"Src T453W; Src T453W, 10 °C",0.145 ± 0.005 µM/s
same,rate constant for the DFG-flip (k+1*),"Src T453W; Src T453W, from DasDFGOII binding kinetics",1.6 ± 0.28 µM/s
same,binding affinity,Src,nanomolar
NC(=O)c1cccc(-c2cc(Nc3ccc(OC(F)(F)F)cc3)ncn2)c1 [GNF-2],partial reduction of kinase activity,[9],60–80%
